# ChEMBL document CHEMBL1201861, “Genomics of Drug Sensitity in Cancer screening data, Wellcome Trust Sanger Institute”
# Experiments:
# Assay in all cases: cells
# CP50-MEL-B = format: functional, cell-based; details: Homo sapiens;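 note: growth inhibition of the human cell line, measured with a cell viability read-out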
# Description: SANGER: Inhibition of human CP50-MEL-B cell growth in a cell viability assay.
# CW-2 = format: functional, cell-based, Homo sapiens; details: Homo sapiens, CW-2;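 note: growth inhibition of CW-2 cells, read out by a cell viability assay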
# Description: SANGER: Inhibition of human CW-2 cell growth in a cell viability assay.
# Calu-6 = format: functional, cell-based, Homo sapiens; details: Homo sapiens, Calu-6;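 note: growth of human Calu-6 cells, read out by a cell viability assay, IC50 marking inhibition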
# Description: SANGER: Inhibition of human Calu-6 cell growth in a cell viability assay.
# EW-11 = format: functional, cell-based, Homo sapiens; details: Homo sapiens, EW-11;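 note: growth inhibition of human EW-11 cells, measured with a cell viability assay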
# Description: SANGER: Inhibition of human EW-11 cell growth in a cell viability assay.
# GB-1 = format: functional, cell-based, Homo sapiens; details: Homo sapiens, GB-1;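 note: growth of GB-1 cells judged by a viability assay, IC50 marks the concentration inhibiting growth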
# Description: SANGER: Inhibition of human GB-1 cell growth in a cell viability assay.
# GCIY = format: functional, cell-based, Homo sapiens; details: Homo sapiens, GCIY;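 note: growth inhibition of the human GCIY cell line, read out by a cell viability assay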
# Description: SANGER: Inhibition of human GCIY cell growth in a cell viability assay.
# GT3TKB = format: functional, cell-based, Homo sapiens; details: Homo sapiens, GT3TKB;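 note: growth inhibition of the cell line, read out with a cell viability assay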
# Description: SANGER: Inhibition of human GT3TKB cell growth in a cell viability assay.
# HDLM-2 = format: functional, cell-based, Homo sapiens; details: Homo sapiens, HDLM-2;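 note: cell viability assay measuring suppression of HDLM-2 proliferation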
# Description: SANGER: Inhibition of human HDLM-2 cell growth in a cell viability assay.
# HOP-62 = format: functional, cell-based, Homo sapiens; details: Homo sapiens, HOP-62;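 note: cell growth inhibition determined with a viability assay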
# Description: SANGER: Inhibition of human HOP-62 cell growth in a cell viability assay.
# HT = format: functional, cell-based, Homo sapiens; details: Homo sapiens, HT
# Description: SANGER: Inhibition of human HT cell growth in a cell viability assay.
# JVM-3 = format: functional, cell-based, Homo sapiens; details: Homo sapiens, JVM-3;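 note: growth inhibition of human JVM-3 cells, read out with a cell viability assay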
# Description: SANGER: Inhibition of human JVM-3 cell growth in a cell viability assay.
# KARPAS-299 = format: functional, cell-based, Homo sapiens; details: Homo sapiens, KARPAS-299
# Description: SANGER: Inhibition of human KARPAS-299 cell growth in a cell viability assay.
# KINGS-1 = format: functional, cell-based, Homo sapiens; details: Homo sapiens, KINGS-1;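 note: cell viability assay measuring suppression of KINGS-1 cell growth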
# Description: SANGER: Inhibition of human KINGS-1 cell growth in a cell viability assay.
# KNS-81-FD = format: functional, cell-based, Homo sapiens; details: Homo sapiens, KNS-81-FD;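 note: growth inhibition of KNS-81-FD cells, read out with a cell viability assay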
# Description: SANGER: Inhibition of human KNS-81-FD cell growth in a cell viability assay.
# KY821 = format: functional, cell-based, Homo sapiens; details: Homo sapiens, KY821;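 note: growth inhibition of human KY821 cells, read out by a cell viability assay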
# Description: SANGER: Inhibition of human KY821 cell growth in a cell viability assay.
# LB1047-RCC = format: functional, cell-based, Homo sapiens; details: Homo sapiens, LB1047-RCC;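 note: inhibition of cell growth, determined with a cell viability assay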
# Description: SANGER: Inhibition of human LB1047-RCC cell growth in a cell viability assay.
# LB2241-RCC = format: functional, cell-based, Homo sapiens; details: Homo sapiens, LB2241-RCC;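 note: cell viability assay measuring how strongly the cultured human renal carcinoma line is prevented from growing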
# Description: SANGER: Inhibition of human LB2241-RCC cell growth in a cell viability assay.
# LB2518-MEL = format: functional, cell-based; details: Homo sapiens;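 note: growth inhibition of human LB2518-MEL cells, measured with a cell viability assay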
# Description: SANGER: Inhibition of human LB2518-MEL cell growth in a cell viability assay.
# LC-2-ad = format: functional, cell-based, Homo sapiens; details: Homo sapiens, LC-2-ad;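 note: growth inhibition of human LC-2-ad cells, read out with a cell viability assay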
# Description: SANGER: Inhibition of human LC-2-ad cell growth in a cell viability assay.
# LS-123 = format: functional, cell-based, Homo sapiens; details: Homo sapiens, LS-123
# Description: SANGER: Inhibition of human LS-123 cell growth in a cell viability assay.
# LU-134-A = format: functional, cell-based, Homo sapiens; details: Homo sapiens, LU-134-A
# Description: SANGER: Inhibition of human LU-134-A cell growth in a cell viability assay.
# MEG-01 = format: functional, cell-based, Homo sapiens; details: Homo sapiens, MEG-01;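 note: growth inhibition of MEG-01 cells, read out by a cell viability assay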
# Description: SANGER: Inhibition of human MEG-01 cell growth in a cell viability assay.
# MHH-NB-11 = format: functional, cell-based, Homo sapiens; details: Homo sapiens, MHH-NB-11;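 note: growth inhibition of human MHH-NB-11 cells, read out by a cell viability assay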
# Description: SANGER: Inhibition of human MHH-NB-11 cell growth in a cell viability assay.
# MHH-PREB-1 = format: functional, cell-based, Homo sapiens; details: Homo sapiens, MHH-PREB-1;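 note: cell viability assay measuring inhibition of proliferation of human MHH-PREB-1 cells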
# Description: SANGER: Inhibition of human MHH-PREB-1 cell growth in a cell viability assay.
# MS-1 = format: functional, cell-based, Homo sapiens; details: Homo sapiens, MS-1;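 note: growth inhibition of MS-1 cells, read out by cell viability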
# Description: SANGER: Inhibition of human MS-1 cell growth in a cell viability assay.
# MV4-11 = format: functional, cell-based, Homo sapiens, MV-4-11; details: Homo sapiens, MV4-11;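 note: cell viability readout measuring growth inhibition of human MV-4-11 cells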
# Description: SANGER: Inhibition of human MV-4-11 cell growth in a cell viability assay.
# NB6 = format: functional, cell-based, Homo sapiens; details: Homo sapiens, NB6;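 note: growth inhibition of NB6 cells, read out by a cell viability assay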
# Description: SANGER: Inhibition of human NB6 cell growth in a cell viability assay.
# NCI-H1299 = format: functional, cell-based; details: Homo sapiens;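 note: growth inhibition of human NCI-H1299 cells, read out by a cell viability assay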
# Description: SANGER: Inhibition of human NCI-H1299 cell growth in a cell viability assay.
# NCI-H1355 = format: functional, cell-based, Homo sapiens; details: Homo sapiens, NCI-H1355;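 note: growth inhibition of human NCI-H1355 cells, read out by a cell viability assay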
# Description: SANGER: Inhibition of human NCI-H1355 cell growth in a cell viability assay.
# NCI-H1395 = format: functional, cell-based, Homo sapiens; details: Homo sapiens, NCI-H1395;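 note: cell viability assay read-out quantifying reduced proliferation of human NCI-H1395 cells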
# Description: SANGER: Inhibition of human NCI-H1395 cell growth in a cell viability assay.
# NCI-H209 = format: functional, cell-based, Homo sapiens; details: Homo sapiens, NCI-H209;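 note: growth inhibition of human NCI-H209 cells, measured by a cell viability assay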
# Description: SANGER: Inhibition of human NCI-H209 cell growth in a cell viability assay.
# NCI-H747 = format: functional, cell-based, Homo sapiens; details: Homo sapiens, NCI-H747;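 note: growth inhibition of human NCI-H747 cells, read out by a cell viability assay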
# Description: SANGER: Inhibition of human NCI-H747 cell growth in a cell viability assay.
# NTERA-2-cl-D1 = format: functional, cell-based, Homo sapiens; details: Homo sapiens, NTERA-2-cl-D1;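 note: inhibition of cell growth, measured with a cell viability assay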
# Description: SANGER: Inhibition of human NTERA-S-cl-D1 cell growth in a cell viability assay.
# OCI-AML2 = format: functional, cell-based, Homo sapiens; details: Homo sapiens, OCI-AML2;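 note: growth inhibition of OCI-AML2 cells, read out with a cell viability assay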
# Description: SANGER: Inhibition of human OCI-AML2 cell growth in a cell viability assay.
# OCUB-M = format: functional, cell-based; details: Homo sapiens;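 note: growth inhibition of the cancer cell line, read out through a cell viability assay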
# Description: SANGER: Inhibition of human OCUB-M cell growth in a cell viability assay.
# OS-RC-2 = format: functional, cell-based, Homo sapiens; details: Homo sapiens, OS-RC-2;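 note: growth inhibition of human OS-RC-2 cells, measured by a cell viability assay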
# Description: SANGER: Inhibition of human OS-RC-2 cell growth in a cell viability assay.
# SK-MEL-2 = format: functional, cell-based, Homo sapiens; details: Homo sapiens, SK-MEL-2;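 note: growth inhibition of human SK-MEL-2 cells measured with a cell viability assay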
# Description: SANGER: Inhibition of human SK-MEL-2 cell growth in a cell viability assay.
# SNB-75 = format: functional, cell-based, Homo sapiens; details: Homo sapiens, SNB-75;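 note: cell viability assay measuring growth inhibition of human SNB-75 cells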
# Description: SANGER: Inhibition of human SNB75 cell growth in a cell viability assay.
# SW 954 = format: functional, cell-based, Homo sapiens; details: Homo sapiens, SW 954;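 note: growth inhibition of SW954 human cancer cells, read out as cell viability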
# Description: SANGER: Inhibition of human SW954 cell growth in a cell viability assay.
# 8-MG-BA = format: functional, cell-based, Homo sapiens; details: Homo sapiens, 8-MG-BA;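 note: growth inhibition of 8-MG-BA cells, read out with a cell viability assay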
# Description: SANGER: Inhibition of human 8-MG-BA cell growth in a cell viability assay.
# A3-KAW = format: functional, cell-based, Homo sapiens; details: Homo sapiens, A3-KAW;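 note: growth inhibition of human A3-KAW cells, read out with a cell viability assay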
# Description: SANGER: Inhibition of human A3-KAW cell growth in a cell viability assay.
# A4-Fuk = format: functional, cell-based, Homo sapiens; details: Homo sapiens, A4-Fuk;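 note: growth inhibition of A4-Fuk cells, read out by a cell viability assay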
# Description: SANGER: Inhibition of human A4-Fuk cell growth in a cell viability assay.
# AU565 = format: functional, cell-based; details: Homo sapiens;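 note: cell viability assay measuring growth inhibition of human AU565 cells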
# Description: SANGER: Inhibition of human AU565 cell growth in a cell viability assay.
# BB30-HNC = format: functional, cell-based, Homo sapiens; details: Homo sapiens, BB30-HNC;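 note: growth inhibition of the cultured cell line, read out by a cell viability assay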
# Description: SANGER: Inhibition of human BB30-HNC cell growth in a cell viability assay.
# BB65-RCC = format: functional, cell-based, Homo sapiens; details: Homo sapiens, BB65-RCC;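 note: growth inhibition of the cell line, measured with a cell viability assay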
# Description: SANGER: Inhibition of human BB65-RCC cell growth in a cell viability assay.
# BFTC-905 = format: functional, cell-based; details: Homo sapiens
# Description: SANGER: Inhibition of human BFTC-905 cell growth in a cell viability assay.
# TE-10 = format: functional, cell-based, Homo sapiens; details: Homo sapiens, TE-10;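 note: growth inhibition of TE-10 cells, measured by a cell viability assay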
# Description: SANGER: Inhibition of human TE-10 cell growth in a cell viability assay.
# TE-12 = format: functional, cell-based, Homo sapiens; details: Homo sapiens, TE-12;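 note: growth inhibition of TE-12 cells, read out by a cell viability assay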
# Description: SANGER: Inhibition of human TE-12 cell growth in a cell viability assay.
# no-11 = format: functional, cell-based, Homo sapiens; details: Homo sapiens;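 note: growth inhibition of human NO-11 cells, read out with a cell viability assay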
# Description: SANGER: Inhibition of human no-11 cell growth in a cell viability assay.
# COLO-668 = format: functional, cell-based, Homo sapiens; details: Homo sapiens, COLO-668
# Description: SANGER: Inhibition of human COLO-668 cell growth in a cell viability assay.
smiles,measurement,setting,value
OC[C@H](Cc1ccccc1)Nc1nc(Oc2ccc3c(c2)CCC3)nc2c1ncn2Cc1ccc(-c2ccccc2)cc1,IC50,CP50-MEL-B,> 10.2 µM
same,IC50,CW-2,> 10.2 µM
same,IC50,Calu-6,> 10.2 µM
same,IC50,EW-11,> 10.2 µM
same,IC50,GB-1,5.25 µM
same,IC50,GCIY,> 10.2 µM
same,IC50,GT3TKB,> 10.2 µM
same,IC50,HDLM-2,> 10.2 µM
same,IC50,HOP-62,3.45 µM
same,IC50,HT,> 10.2 µM
same,IC50,JVM-3,> 10.2 µM
same,IC50,KARPAS-299,> 10.2 µM
same,IC50,KINGS-1,> 10.2 µM
same,IC50,KNS-81-FD,> 10.2 µM
same,IC50,KY821,> 10.2 µM
same,IC50,LB1047-RCC,> 10.2 µM
same,IC50,LB2241-RCC,> 10.2 µM
same,IC50,LB2518-MEL,> 10.2 µM
same,IC50,LC-2-ad,8.53 µM
same,IC50,LS-123,9.49 µM
same,IC50,LU-134-A,> 10.2 µM
same,IC50,MEG-01,4.6 µM
same,IC50,MHH-NB-11,> 10.2 µM
same,IC50,MHH-PREB-1,> 10.2 µM
same,IC50,MS-1,> 10.2 µM
same,IC50,MV4-11,5.51 µM
same,IC50,NB6,> 10.2 µM
same,IC50,NCI-H1299,> 10.2 µM
same,IC50,NCI-H1355,> 10.2 µM
same,IC50,NCI-H1395,> 10.2 µM
same,IC50,NCI-H209,> 10.2 µM
same,IC50,NCI-H747,> 10.2 µM
same,IC50,NTERA-2-cl-D1,> 10.2 µM
same,IC50,OCI-AML2,5.77 µM
same,IC50,OCUB-M,3.68 µM
same,IC50,OS-RC-2,> 10.2 µM
same,IC50,SK-MEL-2,> 10.2 µM
same,IC50,SNB-75,> 10.2 µM
same,IC50,SW 954,> 10.2 µM
same,IC50,8-MG-BA,3.54 µM
same,IC50,A3-KAW,7.38 µM
same,IC50,A4-Fuk,> 10.2 µM
same,IC50,AU565,6.47 µM
same,IC50,BB30-HNC,3.92 µM
same,IC50,BB65-RCC,7.84 µM
same,IC50,BFTC-905,5.02 µM
same,IC50,TE-10,7.51 µM
same,IC50,TE-12,> 10.2 µM
same,IC50,no-11,> 10.2 µM
same,IC50,COLO-668,> 10.2 µM
Cc1ccc(-n2nc(C(C)(C)C)cc2NC(=O)Nc2ccc(OCCN3CCOCC3)c3ccccc23)cc1 [DORAMAPIMOD],IC50,CP50-MEL-B,> 10 µM
same,IC50,CW-2,> 10 µM
same,IC50,Calu-6,> 10 µM
same,IC50,EW-11,> 10 µM
same,IC50,GB-1,> 10 µM
same,IC50,GCIY,> 10 µM
same,IC50,GT3TKB,> 10 µM
same,IC50,HDLM-2,> 10 µM
same,IC50,HOP-62,> 10 µM
same,IC50,HT,> 10 µM
same,IC50,JVM-3,> 10 µM
same,IC50,KARPAS-299,> 10 µM
same,IC50,KINGS-1,> 10 µM
same,IC50,KNS-81-FD,> 10 µM
same,IC50,KY821,> 10 µM
same,IC50,LB1047-RCC,> 10 µM
same,IC50,LB2241-RCC,> 10 µM
same,IC50,LB2518-MEL,> 10 µM
same,IC50,LC-2-ad,> 10 µM
same,IC50,LS-123,> 10 µM
same,IC50,LU-134-A,> 10 µM
same,IC50,MEG-01,> 10 µM
same,IC50,MHH-NB-11,> 10 µM
same,IC50,MHH-PREB-1,> 10 µM
same,IC50,MS-1,> 10 µM
same,IC50,MV4-11,> 10 µM
same,IC50,NB6,> 10 µM
same,IC50,NCI-H1299,> 10 µM
same,IC50,NCI-H1355,> 10 µM
same,IC50,NCI-H1395,> 10 µM
same,IC50,NCI-H209,> 10 µM
same,IC50,NCI-H747,> 10 µM
same,IC50,NTERA-2-cl-D1,> 10 µM
same,IC50,OCI-AML2,> 10 µM
same,IC50,OCUB-M,> 10 µM
same,IC50,OS-RC-2,> 10 µM
same,IC50,SK-MEL-2,> 10 µM
same,IC50,SNB-75,> 10 µM
same,IC50,SW 954,> 10 µM
same,IC50,8-MG-BA,> 10 µM
same,IC50,A3-KAW,> 10 µM
same,IC50,A4-Fuk,> 10 µM
same,IC50,AU565,> 10 µM
same,IC50,BB30-HNC,> 10 µM
same,IC50,BB65-RCC,> 10 µM
same,IC50,BFTC-905,> 10 µM
same,IC50,TE-10,> 10 µM
same,IC50,TE-12,> 10 µM
same,IC50,no-11,> 10 µM
same,IC50,COLO-668,> 10 µM
